# Data as given in publication PMC7010350 (ACS chemical biology, 2019).
# What was measured:
# Format in all cases: physicochemical
# [1] = Solubility of the lyophilized peptide on resuspension in water or methanol; details: aqueous suspension relyophilized and resuspended in methanol
# [2] = Thermostability, heat treatment at 95 °C for 2 h, LC-MS
# [3] = Susceptibility of the disulfide bond to reduction with DTT or β-mercaptoethanol; details: LC-MS
solubility in methanol (in words) [1],"peptide reduced, 20 mM DTT with heating ([3]; 20 mM DTT, 95 °C for 2 h)","reduction of the disulfide bond, 20 mM DTT, room temperature ([3]; 20 mM DTT, room temperature 1 h, aqueous peptide 5.8 mg/mL)","peptide reduced, 5% β-ME with heating (in words) ([3]; 5% (~641 mM) β-mercaptoethanol, 95 °C for 2 h)",Substance,thermally induced unthreading (in words) [2]
readily dissolved,less than 10%,no reduction products were observed,a majority of pandonodin was reduced,pandonodin,only minimal unthreading
–,–,–,–,pandonodin C16A C21A [pandonodin AA],significantly more pandonodin AA unthreaded than did wild-type pandonodin
